Read-outs that look alike come from different tables or passages of the source. Marks after values point to notes of the source that are not given here.
What was measured:
[1] = test system: human NCI-H1975 lung cancer mouse xenograft tumor model; assay: Example 4: Compound 5 with AZD9291 or afatinib in xenograft tumor model; type: in vivo; details: for RTV on Day 15 after administration (mean ± standard error) / T/C on Day 15 after administration (%): Compound 5 100 mg/kg, AZD9291 5 then 2 mg/kg, afatinib 10 then 5 mg/kg, orally, once per day
From the text: Subsequently, a H1975 cell-derived mouse xenograft tumor model was established to evaluate the anti-tumor effects of Compound 5 in combination with EGFR inhibitor AZD9291 (osimertinib) or afatinib.

[2] = test system: human NCI-H1975 xenograft tumor model; assay: Example 9: Compound 5 with AZD9291 or Avitinib in xenograft tumor model; type: in vivo, mouse; details: Compound 5 50 mg/kg, AZD9291 2 mg/kg, Avitinib 10 mg/kg, orally, once per day
From the text: (§1) The dosage regimen was as follows:

[3] = test system: NCI-H1975 tumor cells; assay: WST (CCK-8) anti-proliferation experiment, single drugs and combinations; type: cell-based; details: Homo sapiens, NCI-H1975, 72 hours
Experimental: Cell plating: Anti-proliferative effects were detected by a CCK-8 (Cell Counting Kit-8) assay based on water soluble tetrazolium salt (WST). The cells were seeded in 96-well plates, and only 95 μL of complete medium was added to each negative control group. 95 μL of complete medium cell suspension was added to each well to be tested, and the cell density was […]. Dosing (protection from light): In 96-well culture plates, according to the sensitivity of different cells to different drugs, the highest concentration was selected as 10 μM, and 9 concentrations were obtained by serial dilution in a ratio of 1:3.5 μL of compound was added to each well and 2-3 replicate wells were made for per concentration. After the compound was added, 96-well plates were incubated in a 5% CO2 incubator at 37° C. After 72 hours of action by using 9 different concentrations of the drug with 3 fixed doses of Compound 5, the combination effect of Compound 5 and the drug was tested. Reading: At the end of the culture, the old solution was removed from the well to be tested, and 100 μl/well CCK-8 test solution (containing 10% CCK-8, 5% FBS in the corresponding medium) was added. The plates were continuously incubated at 37° C. for 2-4 hours in a CO2 incubator. The OD values were measured using a microplate reader (SpectraMax Plus 384, Molecular Devices, LLC., US) under A450 nm. […] (O.D. of test well−O.D. of blank control well)/(O.D. of cell control well−O.D. of blank control well)×100%. IC50 values were calculated using Graphpad Prism 6.0 software for nonlinear regression data analysis method.

[4] = test system: human NCI-H1975 xenograft tumor model; assay: Example 8: Compound 5 or Ensartinib with Avitinib in xenograft tumor model; type: in vivo, mouse; details: Compound 5 50 mg/kg; Ensartinib 20 mg/kg; Avitinib 10 mg/kg; orally, once per day, 21 days
From the text: as §1

[5] = single EGFR inhibitor, read-out: Compound B IC50

SMILES	RTV on Day 15 after administration (mean ± standard error) [1]	T/C on Day 15 after administration (%) [1] [%]	tumor after discontinuation of administration ([1]; after discontinuation of administration)	RTV on Day 11 after administration (mean ± standard error) [2]	T/C on Day 11 after administration (%) [2]	RTV on Day 15 after administration (mean ± standard error) [2]	T/C on Day 15 after administration (%) [2] [%]	IC50 [3, 5] [nM]	RTV on Day 21 after administration (mean ± standard error) [4]	T/C on Day 21 after administration (%) [4] [%]	IC50 ([3]; single drug, read-out: Compound A IC50) [nM]	T/C on Day 15 after administration (%) ([1]; listed as Afatinib)
C=CC(=O)Nc1cc(Nc2nccc(-c3cn(C)c4ccccc34)n2)c(OC)cc1N(C)CCN(C)C [AZD9291, osimertinib]	1.4 ± 0.2	6	tumor rebound was gradually observed	1.6 ± 0.3	1.6** %	1.8 ± 0.2	16.8	410	–	–	–	–
C=CC(=O)Nc1cccc(Oc2nc(Nc3ccc(N4CCN(C)CC4)c(F)c3)nc3[nH]ccc23)c1 [Avitinib]	–	–	–	5.9 ± 0.4	82.0%	7.8 ± 0.7	72.4	–	13.29 ± 2.65	83.1	–	–
Cc1cc(Nc2ncc(Cl)c(Nc3ccccc3S(=O)(=O)C(C)C)n2)c(OC(C)C)cc1C1=CCN(C2CCOCC2)CC1 [Compound 5, 5-chloro-N^2-(2-isopropoxy-5-methyl-4-(1-(tetrahydro-2H-pyran-4-yl)-1,2,3,6-tetrahydropyridin-4-yl)phenyl)-N^4-(2-(isopropylsulfonyl)phenyl)pyrimidine-2,4-diamine]	13.8 ± 1.8	66.0	–	8.2 ± 0.5	113.8%	10.3 ± 1.1	95.6	–	12.8 ± 1.5	80	3550 ± 1110	–
C[C@@H]1CN(C(=O)c2ccc(NC(=O)c3cc(O[C@H](C)c4c(Cl)ccc(F)c4Cl)c(N)nn3)cc2)C[C@H](C)N1 [Ensartinib]	–	–	–	–	–	–	–	–	9.5 ± 1.1	61.3	–	–
CN(C)C/C=C/C(=O)Nc1cc2c(Nc3ccc(F)c(Cl)c3)ncnc2cc1O[C@H]1CCOC1 [afatinib]	15.5 ± 1.5	74	–	–	–	–	–	337	–	–	–	74.0

From patent publication US11478477B2, “Method for treating cancer by combination of FAK/ALK/ROS1 inhibitor and EGFR inhibitor” (ASCENTAGE PHARMA (SUZHOU) CO., LTD., priority 2018, dated 2022)
